Results: ChEMBL document CHEMBL1135013, “A simple and rapid method for the differentiation of C-13 manoyl oxide epimers in biologically important samples using GC-MS analysis supported with NMR spectroscopy and computational chemistry results” (2002)
In brackets after ≈: the same amount, converted by molar mass.

Experiments:
Format in all cases: functional
[1] = tested on: Klebsiella pneumoniae; assay: Compound (isolated from leaves of Cistus monspeliensis) was tested for antimicrobial activity against Klebsiella pneumoniae (ATCC 13883)
[2] = tested on: Escherichia coli; assay: Compound (isolated from leaves of Cistus monspeliensis) was tested for antimicrobial activity against Escherichia coli (ATCC 25922)
[3] = tested on: Staphylococcus hominis; assay: Compound (isolated from leaves of Cistus monspeliensis) was tested for antimicrobial activity against Staphylococcus hominis (ATCC 27844)
[4] = tested on: Staphylococcus aureus; assay: Compound (isolated from leaves of Cistus monspeliensis) was tested for antimicrobial activity against Staphylococcus aureus (ATCC 6538)
[5] = tested on: Staphylococcus epidermidis; assay: Compound (isolated from leaves of Cistus monspeliensis) was tested for antimicrobial activity against Staphylococcus epidermidis (ATCC 12228)

MIC50 [1] [µg/mL] | MIC50 [2] [µg/mL] | MIC50 [3] [µg/mL] | MIC50 [4] [µg/mL] | MIC50 [5] [µg/mL] | SMILES
> 2000 | > 2000 |  |  |  | C=C[C@@]1(C)CC[C@@H]2[C@](C)(CCC3C(C)(C)CCC[C@]32C)O1 (some centres not stated)
0.6 (≈ 1.03 µM) | 0.6 (≈ 1.03 µM) | 2.1 (≈ 3.61 µM) | 2.1 (≈ 3.61 µM) | 2.1 (≈ 3.61 µM) | CN[C@@H]1[C@H](O[C@H]2[C@H](O[C@H]3[C@H](O)[C@@H](O)[C@H](N=C(N)N)[C@@H](O)[C@@H]3N=C(N)N)O[C@@H](C)[C@]2(O)C=O)O[C@@H](CO)[C@H](O)[C@H]1O [STREPTOMYCIN]
